Data from patent US20240024488A1, “COMPOUNDS AND USES THEREOF” (Foghorn Therapeutics Inc., priority 2020, published 2024).

Experiments:
[1] = target: T1, HiBit-BRG1 fusion protein (Homo sapiens, UniProt P51532); assay: HiBiT-BRG1 cell-based degradation assay (Nano-Glo HiBiT Lytic Detection, 24 h); conditions: HeLa cell line expressing HiBit-BRG1 and LgBit; for Dmax: read-out: BRG1 HiBit Degradation Maximum (%); for DC50: read-out: BRMG1 HiBit Degradation IC50
T1 construct: expressed in transfected cells
T1 sequence (P51532 whole entry, the tested form may be a part): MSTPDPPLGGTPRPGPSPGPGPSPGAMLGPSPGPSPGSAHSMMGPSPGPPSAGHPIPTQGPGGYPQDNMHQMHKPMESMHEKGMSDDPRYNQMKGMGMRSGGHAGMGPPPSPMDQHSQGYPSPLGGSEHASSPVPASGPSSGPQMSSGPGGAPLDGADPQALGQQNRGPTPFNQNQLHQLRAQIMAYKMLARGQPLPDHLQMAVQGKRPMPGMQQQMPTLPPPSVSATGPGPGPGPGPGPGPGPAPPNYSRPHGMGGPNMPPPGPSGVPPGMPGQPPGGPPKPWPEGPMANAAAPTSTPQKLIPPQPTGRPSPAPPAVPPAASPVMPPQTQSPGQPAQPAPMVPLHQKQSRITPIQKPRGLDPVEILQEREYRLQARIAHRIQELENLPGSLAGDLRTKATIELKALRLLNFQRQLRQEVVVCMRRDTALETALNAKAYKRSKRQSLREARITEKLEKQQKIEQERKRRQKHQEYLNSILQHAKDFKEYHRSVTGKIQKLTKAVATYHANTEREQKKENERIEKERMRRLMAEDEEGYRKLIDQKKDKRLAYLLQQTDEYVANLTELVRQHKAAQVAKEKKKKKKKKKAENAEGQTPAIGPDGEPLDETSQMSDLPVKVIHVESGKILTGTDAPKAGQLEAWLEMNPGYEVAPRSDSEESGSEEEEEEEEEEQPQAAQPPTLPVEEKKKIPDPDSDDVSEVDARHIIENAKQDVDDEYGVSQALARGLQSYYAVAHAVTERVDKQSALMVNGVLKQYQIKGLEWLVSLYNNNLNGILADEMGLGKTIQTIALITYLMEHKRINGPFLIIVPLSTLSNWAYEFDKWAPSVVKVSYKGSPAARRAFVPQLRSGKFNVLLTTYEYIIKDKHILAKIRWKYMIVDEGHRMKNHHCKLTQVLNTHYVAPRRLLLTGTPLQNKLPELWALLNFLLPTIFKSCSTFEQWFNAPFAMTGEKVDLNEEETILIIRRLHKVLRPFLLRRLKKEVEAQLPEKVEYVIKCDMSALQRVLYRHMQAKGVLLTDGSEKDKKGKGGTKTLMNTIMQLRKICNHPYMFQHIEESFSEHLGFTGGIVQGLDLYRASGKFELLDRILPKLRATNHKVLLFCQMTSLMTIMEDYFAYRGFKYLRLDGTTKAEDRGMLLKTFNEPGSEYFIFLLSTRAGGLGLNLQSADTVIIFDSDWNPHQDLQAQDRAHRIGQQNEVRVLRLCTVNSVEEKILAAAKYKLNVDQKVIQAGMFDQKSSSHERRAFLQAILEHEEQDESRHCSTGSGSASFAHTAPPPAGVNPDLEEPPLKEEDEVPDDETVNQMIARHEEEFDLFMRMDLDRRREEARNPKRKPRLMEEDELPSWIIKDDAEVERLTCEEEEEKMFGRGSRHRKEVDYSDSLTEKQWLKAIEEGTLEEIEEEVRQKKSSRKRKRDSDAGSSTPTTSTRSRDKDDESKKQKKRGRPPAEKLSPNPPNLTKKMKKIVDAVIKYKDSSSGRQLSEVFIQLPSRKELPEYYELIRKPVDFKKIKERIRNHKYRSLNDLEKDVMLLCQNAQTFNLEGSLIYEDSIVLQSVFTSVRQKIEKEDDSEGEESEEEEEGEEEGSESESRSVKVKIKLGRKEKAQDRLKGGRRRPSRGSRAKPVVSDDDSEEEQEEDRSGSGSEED
Outline: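 HeLa cells stably expressing HiBiT-BRG1 plus LgBit, 5000/well, treated 24 h, then lysed with Nano-Glo HiBiT lytic reagent and luminescence read. % degradation normalised between DMSO (high control) and 2 μM reference BRM/BRG1 degrader (low control).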

[2] = target: T2, HiBit-BRM fusion protein (Homo sapiens, UniProt P51531); assay: HiBiT-BRM cell-based degradation assay (Nano-Glo HiBiT Lytic Detection, 24 h); conditions: HeLa cell line expressing HiBiT-BRM; for DC50: read-out: BRM HiBit Degradation IC50
T2 construct: expressed in transfected cells
T2 sequence (P51531 whole entry, the tested form may be a part): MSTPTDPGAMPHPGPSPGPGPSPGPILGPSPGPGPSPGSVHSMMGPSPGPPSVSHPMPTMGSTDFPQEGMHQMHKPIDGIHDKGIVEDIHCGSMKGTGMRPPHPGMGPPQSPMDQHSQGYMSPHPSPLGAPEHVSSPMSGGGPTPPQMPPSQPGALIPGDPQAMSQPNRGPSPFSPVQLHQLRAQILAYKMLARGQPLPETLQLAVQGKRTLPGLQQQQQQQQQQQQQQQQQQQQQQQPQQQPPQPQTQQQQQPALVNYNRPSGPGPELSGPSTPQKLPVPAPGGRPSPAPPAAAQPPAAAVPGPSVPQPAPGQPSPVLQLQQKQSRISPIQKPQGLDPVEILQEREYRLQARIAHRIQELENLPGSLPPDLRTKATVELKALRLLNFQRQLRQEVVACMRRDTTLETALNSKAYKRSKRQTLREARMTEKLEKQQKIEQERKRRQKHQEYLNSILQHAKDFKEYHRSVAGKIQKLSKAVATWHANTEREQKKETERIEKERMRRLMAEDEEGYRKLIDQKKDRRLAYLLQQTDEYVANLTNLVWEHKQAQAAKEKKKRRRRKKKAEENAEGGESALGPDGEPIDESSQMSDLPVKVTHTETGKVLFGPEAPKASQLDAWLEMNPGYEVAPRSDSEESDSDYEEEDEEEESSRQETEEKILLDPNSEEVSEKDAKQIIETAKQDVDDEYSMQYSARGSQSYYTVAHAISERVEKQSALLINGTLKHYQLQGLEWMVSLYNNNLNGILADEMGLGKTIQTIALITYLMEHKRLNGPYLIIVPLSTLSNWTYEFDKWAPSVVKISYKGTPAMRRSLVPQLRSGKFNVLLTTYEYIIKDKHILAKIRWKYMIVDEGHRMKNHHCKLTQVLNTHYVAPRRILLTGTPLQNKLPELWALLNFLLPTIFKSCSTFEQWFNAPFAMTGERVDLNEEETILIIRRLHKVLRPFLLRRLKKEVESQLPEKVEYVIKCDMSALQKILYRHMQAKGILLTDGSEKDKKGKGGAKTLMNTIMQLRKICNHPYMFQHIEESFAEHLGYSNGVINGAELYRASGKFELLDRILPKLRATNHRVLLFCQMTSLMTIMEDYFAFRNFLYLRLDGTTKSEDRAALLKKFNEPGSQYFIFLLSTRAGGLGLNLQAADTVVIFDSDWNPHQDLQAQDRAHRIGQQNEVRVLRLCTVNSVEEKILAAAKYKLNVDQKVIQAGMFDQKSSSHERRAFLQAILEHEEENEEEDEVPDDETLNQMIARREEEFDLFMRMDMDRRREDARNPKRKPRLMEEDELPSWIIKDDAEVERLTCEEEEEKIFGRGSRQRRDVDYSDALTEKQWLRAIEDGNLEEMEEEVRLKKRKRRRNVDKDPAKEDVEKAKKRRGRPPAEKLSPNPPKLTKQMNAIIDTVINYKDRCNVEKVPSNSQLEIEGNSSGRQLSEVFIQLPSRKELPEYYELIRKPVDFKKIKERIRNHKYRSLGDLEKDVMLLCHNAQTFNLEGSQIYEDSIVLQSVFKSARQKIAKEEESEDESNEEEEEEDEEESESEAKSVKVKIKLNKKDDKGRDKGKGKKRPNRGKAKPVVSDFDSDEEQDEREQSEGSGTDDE
Outline: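 Percent BRM loss was derived from HiBiT luminescence relative to DMSO-treated cells and cells given 2 μM of a known BRM/BRG1 degrader. Treatment lasted 24 h in HiBiT-BRM HeLa cells, with a top final concentration of 30 μM.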

SMILES	Dmax [1]	BRM HiBit Degradation Maximum (%) [2]	DC50 [2]	DC50 [1]
Cc1ncsc1-c1ccc([C@H](C)NC(=O)[C@@H]2C[C@@H](O)CN2C(=O)[C@@H](c2cc(OCCN3CC(CCc4cc5cc(-c6ccccc6O)nnc5[nH]4)C3)no2)C(C)C)cc1 (racemic) [Compound 244, (2S,4R)-4-hydroxy-1-((R)-2-(3-(2-(3-(2-(3-(2-hydroxyphenyl)-7H-pyrrolo[2,3-c]pyridazin-6-yl)ethyl)azetidin-1-yl)ethoxy)isoxazol-5-yl)-3-methylbutanoyl)-N-((S)-1-(4-(4-methylthiazol-5-yl)phenyl)ethyl)pyrrolidine-2-carboxamide]	> 50%	A (“A” indicates maximum degradation ≥ 75%)	> 100 nM	
Cc1ncsc1-c1ccc([C@H](C)NC(=O)[C@@H]2C[C@@H](O)CN2C(=O)[C@@H](c2cc(OCCN3[C@@H]4CC[C@H]3CN(c3cc5cc(-c6ccccc6O)nnc5[nH]3)C4)no2)C(C)C)cc1 (racemic) [Compound 245, (2S,4R)-4-hydroxy-1-((2R)-2-(3-(2-(3-(3-(2-hydroxyphenyl)-7H-pyrrolo[2,3-c]pyridazin-6-yl)-3,8-diazabicyclo[3.2.1]octan-8-yl)ethoxy)isoxazol-5-yl)-3-methylbutanoyl)-N-((S)-1-(4-(4-methylthiazol-5-yl)phenyl)ethyl)pyrrolidine-2-carboxamide]	> 75%	A (“A” indicates maximum degradation ≥ 75%)	> 10 nM	> 100 nM
Cc1ncsc1-c1ccc([C@H](C)NC(=O)[C@@H]2C[C@@H](O)CN2C(=O)[C@@H](c2cc(OCCN(C)CC34CC(c5cc6cc(-c7ccccc7O)nnc6[nH]5)(C3)C4)no2)C(C)C)cc1 (racemic) [Compound 246, (2S,4R)-4-hydroxy-1-((R)-2-(3-(2-(((3-(3-(2-hydroxyphenyl)-7H-pyrrolo[2,3-c]pyridazin-6-yl)bicyclo[1.1.1]pentan-1-yl)methyl)(methyl)amino)ethoxy)isoxazol-5-yl)-3-methylbutanoyl)-N-((S)-1-(4-(4-methylthiazol-5-yl)phenyl)ethyl)pyrrolidine-2-carboxamide]	> 75%	A (“A” indicates maximum degradation ≥ 75%)	> 10 nM	> 100 nM
Cc1ncsc1-c1ccc([C@H](C)NC(=O)[C@@H]2C[C@@H](O)CN2C(=O)[C@@H](c2cc(N3CCC(CN4CC(c5cc6cc(-c7ccccc7O)nnc6[nH]5)C4)CC3)no2)C(C)C)cc1 (racemic) [Compound 247, (2S,4R)-4-hydroxy-1-((R)-2-(3-(4-((3-(3-(2-hydroxyphenyl)-7H-pyrrolo[2,3-c]pyridazin-6-yl)azetidin-1-yl)methyl)piperidin-1-yl)isoxazol-5-yl)-3-methylbutanoyl)-N-((S)-1-(4-(4-methylthiazol-5-yl)phenyl)ethyl)pyrrolidine-2-carboxamide]	> 50%	A (“A” indicates maximum degradation ≥ 75%)	> 10 nM	> 1000 nM
Cc1ncsc1-c1ccc([C@H](C)NC(=O)[C@@H]2C[C@@H](O)CN2C(=O)[C@@H](c2cc(N3CCC(N4CC(c5cc6cc(-c7ccccc7O)nnc6[nH]5)C4)CC3)no2)C(C)C)cc1 (racemic) [Compound 248, (2S,4R)-4-hydroxy-1-((R)-2-(3-(4-(3-(3-(2-hydroxyphenyl)-7H-pyrrolo[2,3-c]pyridazin-6-yl)azetidin-1-yl)piperidin-1-yl)isoxazol-5-yl)-3-methylbutanoyl)-N-((S)-1-(4-(4-methylthiazol-5-yl)phenyl)ethyl)pyrrolidine-2-carboxamide]	> 50%	A (“A” indicates maximum degradation ≥ 75%)	> 10 nM	> 100 nM
Cc1ncsc1-c1ccc([C@H](C)NC(=O)[C@@H]2C[C@@H](O)CN2C(=O)[C@@H](c2cc(OCCNC(=O)CN3CC(c4cc5cc(-c6ccccc6O)nnc5[nH]4)C3)no2)C(C)C)cc1 (racemic) [Compound 249, (2S,4R)-4-hydroxy-1-((R)-2-(3-(2-(2-(3-(3-(2-hydroxyphenyl)-7H-pyrrolo[2,3-c]pyridazin-6-yl)azetidin-1-yl)acetamido)ethoxy)isoxazol-5-yl)-3-methylbutanoyl)-N-((S)-1-(4-(4-methylthiazol-5-yl)phenyl)ethyl)pyrrolidine-2-carboxamide]	< 50%	A (“A” indicates maximum degradation ≥ 75%)	> 100 nM	
Cc1ncsc1-c1ccc([C@H](C)NC(=O)[C@@H]2C[C@@H](O)CN2C(=O)[C@@H](c2cc(OCCNC(=O)C(=O)N3CC(c4c[nH]c5nnc(-c6ccccc6O)cc45)C3)no2)C(C)C)cc1 (racemic) [Compound 250, (2S,4R)-4-hydroxy-1-((R)-2-(3-(2-(2-(3-(3-(2-hydroxyphenyl)-7H-pyrrolo[2,3-c]pyridazin-5-yl)azetidin-1-yl)-2-oxoacetamido)ethoxy)isoxazol-5-yl)-3-methylbutanoyl)-N-((S)-1-(4-(4-methylthiazol-5-yl)phenyl)ethyl)pyrrolidine-2-carboxamide]	< 50%	A (“A” indicates maximum degradation ≥ 75%)	> 100 nM	
Cc1ncsc1-c1ccc([C@H](C)NC(=O)[C@@H]2C[C@@H](O)CN2C(=O)[C@@H](c2cc(N3CCN(CCC(=O)N4CC(c5c[nH]c6nnc(-c7ccccc7O)cc56)C4)CC3)no2)C(C)C)cc1 (racemic) [Compound 251, (2S,4R)-4-hydroxy-1-((R)-2-(3-(4-(3-(3-(3-(2-hydroxyphenyl)-7H-pyrrolo[2,3-c]pyridazin-5-yl)azetidin-1-yl)-3-oxopropyl)piperazin-1-yl)isoxazol-5-yl)-3-methylbutanoyl)-N-((S)-1-(4-(4-methylthiazol-5-yl)phenyl)ethyl)pyrrolidine-2-carboxamide]	> 75%	A (“A” indicates maximum degradation ≥ 75%)	> 100 nM	> 100 nM
Cc1ncsc1-c1ccc([C@H](C)NC(=O)[C@@H]2C[C@@H](O)CN2C(=O)[C@H](c2cc(N3CCN(C(=O)c4cc5cc(-c6ccccc6O)nnc5[nH]4)CC3)no2)C(C)C)cc1 (racemic) [Compound 252, (2S,4R)-4-hydroxy-1-((S)-2-(3-(4-(3-(2-hydroxyphenyl)-7H-pyrrolo[2,3-c]pyridazine-6-carbonyl)piperazin-1-yl)isoxazol-5-yl)-3-methylbutanoyl)-N-((S)-1-(4-(4-methylthiazol-5-yl)phenyl)ethyl)pyrrolidine-2-carboxamide]	< 50%	C (“C” indicates maximum degradation < 50%)		
Cc1ncsc1-c1ccc([C@H](C)NC(=O)[C@@H]2C[C@@H](O)CN2C(=O)[C@@H](c2cc(N3CCN(C(=O)c4cc5cc(-c6ccccc6O)nnc5[nH]4)CC3)no2)C(C)C)cc1 (racemic) [Compound 253, (2S,4R)-4-hydroxy-1-((R)-2-(3-(4-(3-(2-hydroxyphenyl)-7H-pyrrolo[2,3-c]pyridazine-6-carbonyl)piperazin-1-yl)isoxazol-5-yl)-3-methylbutanoyl)-N-((S)-1-(4-(4-methylthiazol-5-yl)phenyl)ethyl)pyrrolidine-2-carboxamide]	> 75%	A (“A” indicates maximum degradation ≥ 75%)	> 100 nM	> 100 nM
